Measured values reported in patent publication US20110014204A1, “Cancer Chemoprevention Strategy Based on Loss of Imprinting of IGF2” (priority 2006, published 2011).

What was measured:
[1] = test system: aberrant crypt foci (ACF); assay: Azoxymethane (AOM)-induced aberrant crypt foci (ACF) in LOI(+) and LOI(−) mice, NVP-AEW541 by oral gavage; assay type: in vivo; details: for ACF per colon: AOM intraperitoneally weekly for 3 weeks, sacrificed at 5 weeks, no inhibitor; for AOM-induced ACF formation: AOM plus NVP-AEW541 50 mg/kg oral gavage for 6 weeks; for decrease in ACFs normalized to colon surface area: AOM, treated with the inhibitor
Experimental: ACF formation in the colon was induced by AOM intraperitoneal injection, and treatment with NVP-AEW541 was by gastric gavage. Each ACF was formed of 1-4 aberrant crypts, and the number of ACF (# of ACF), the number of total aberrant crypts (# of AC), and the average number of aberrant crypts per ACF were measured.
(A) ACF formation in the colon was induced by AOM i.p. injection, and treatment with NVP-AEW541 was by gastric […]. Each ACF was formed of […] aberrant crypts, and the number of ACF (# of ACF), the number of total aberrant crypts (# of AC), and the average number of aberrant crypts per ACF were measured. LOI(+) AOM mice (dark gray bars), LOI(−) AOM mice (black bars), LOI(+) AOM NVP mice (light gray bars), LOI(−) AOM NVP mice (gray bars). (B) The number of ACF and the number of total aberrant crypts (AC) were corrected by colon surface area (cm^2).
7 week old LOI(+) and LOI(−) littermate controls were treated with AOM at 10 mg/kg body weight intraperitoneally once per week for three weeks, and euthanized 5 weeks after the first dose of AOM. The entire colon was resected from mice after laparotomy, flushed with PBS, filled with 10% buffered formalin (Sigma) for one minute, opened longitudinally, fixed flat between filter paper in formalin at 4° C. overnight, rinsed with PBS, and stained with 0.2% methylene blue in saline. The number of ACF per colon and the number of aberrant crypts per ACF were scored under a light microscopy as previously described Bird, Cancer Lett (1987) 37:147-151). NVP-AEW541 (50 mg/kg) was administered by oral gavage, beginning 1 week before AOM treatment, and NVP-AEW541 was administered 7 days/week, twice a day for 5 weekdays and once a day for 2 weekend days, for 6 weeks until sacrifice.
Because of known strain variation in progression of these lesions, littermate controls were treated with and without LOI, in which the dams were heterozygous for a deletion of the H19 differentially methylated region (DMR); inheritance of a maternal allele lacking the DMR leads to activation of the normally silent allele of Igf2 [LOI(+)], while inheritance of a wild type maternal allele leads to normal imprinting [LOI(−)]. Eight LOI(+) and 14 LOI(−) mice were given AOM intraperitoneally weekly for 3 weeks, sacrificed at 5 weeks after the first dose, and ACF were scored by the method of Bird (1987). Histologic examination of colons from AOM-treated mice confirmed the presence of ACF, with hyperproliferative features including increased mitosis, crypt enlargement and crypt disarray (FIG. 12). […] An additional intriguing finding in AOM-treated LOI(+) mice was cystically dilated crypts lined by enlarged cells with atypical nuclei and that contained necrotic debris, that were reminiscent of sessile serrated adenomas (SSAs) seen in the human colon (FIG. 12). SSAs also show crypt dilatation in association with cytologic atypia and are currently of immense interest for their recently recognized association with colorectal cancer (Snover et al., Am J Clin Pathol (2005) 124:380-391). It will thus be of interest to determine whether SSAs are associated with LOI in the human population.
An additional 9 LOI(+) mice and 9 LOI(−) control littermates were similarly exposed to AOM, adding treatment with NVP-AEW541, an IGF1R inhibitor, at a dose of 50 mg/kg by oral gavage daily for 6 weeks (twice daily except daily on weekends). […] Thus, LOI of lgf2 increases the sensitivity to AOM through an IGF1R-dependent mechanism.
Eight LOI(+) and 14 LOI(−) mice were given AOM intraperitoneally weekly for 3 weeks, sacrificed at 5 weeks after the first dose, and ACFs were scored as described (Bird (1987)). Histologic examination of colons from AOM-treated mice confirmed the presence of ACFs, with hyperproliferative features including increased mitosis, crypt enlargement and crypt disarray (FIG. 14A, B). […]

mouse ES cells = assay: IGF2 stimulation of mouse ES cells, gene expression by real-time RT-PCR, with or without NVP-AEW541; assay type: cell-based; details: for increase in Cdc6 gene expression: 800 ng/ml mouse Igf2 recombinant protein
Experimental: (§1) Mouse ES cells were cultured in defined medium and treated with 800 ng/ml mouse lgf2 protein. Gene expression was analyzed by real-time RT-PCR and normalized to β-actin. Shown is the expression level without (black boxes) and with (gray boxes) the IGF1R inhibitor 3 μM NVP-AEW541 (a pyrrolo-2,3d-pyrimidine), normalized to time 0. The bars indicate standard error.
as §1, with “(pink” for “(gray”, “IGF1R R” for “IGF1R”, “NVP-AEW541,” for “NVP-AEW541 (a pyrrolo-2,3d-pyrimidine),”, “bar represents” for “bars indicate”
For IGF2 stimulation, wild type ES cells were isolated as described above, and cultured in ESGRO Complete Basal Medium with 800 ng/ml of mouse Igf2 recombinant protein (StemCell Technologies), with or without 3 μM NVP-AEW541 (Novartis). Cells were washed with PBS twice and RNA was extracted using the RNeasy Kit (QIAGEN) at Oh, 3 h, 6 h, 10 h, and 24 h. Gene expression was assayed by real-time quantitative RT-PCR as described above.
It remained theoretically possible that the observed difference in gene expression simply reflected the over-representation of progenitor cells within the intestinal crypts, rather than a change in cellular gene expression per se. To confirm the latter, mouse embryonic stem (ES) cells were derived and plated in ESGRO Complete Clonal Grade defined medium (Chemicon), which contains no IGF2 and allows growth of undifferentiated ES cells without a feeder layer, which was done with or without 800 ng/ml of mouse Igf2 recombinant protein (StemCell Technologies). Consistent with the microarray experiments, Igf2 induced a 50% and 56% increase in Cdc6 gene expression at 3 and 6 hours, respectively, and 40% and 25% at 10 and 24 hours, respectively (FIG. 3).

IGF1R [2] = target: T1, IGF1R (Homo sapiens, UniProt P08069); details: cited from earlier work
Target sequence in this assay (P08069 31-1367, species assumed): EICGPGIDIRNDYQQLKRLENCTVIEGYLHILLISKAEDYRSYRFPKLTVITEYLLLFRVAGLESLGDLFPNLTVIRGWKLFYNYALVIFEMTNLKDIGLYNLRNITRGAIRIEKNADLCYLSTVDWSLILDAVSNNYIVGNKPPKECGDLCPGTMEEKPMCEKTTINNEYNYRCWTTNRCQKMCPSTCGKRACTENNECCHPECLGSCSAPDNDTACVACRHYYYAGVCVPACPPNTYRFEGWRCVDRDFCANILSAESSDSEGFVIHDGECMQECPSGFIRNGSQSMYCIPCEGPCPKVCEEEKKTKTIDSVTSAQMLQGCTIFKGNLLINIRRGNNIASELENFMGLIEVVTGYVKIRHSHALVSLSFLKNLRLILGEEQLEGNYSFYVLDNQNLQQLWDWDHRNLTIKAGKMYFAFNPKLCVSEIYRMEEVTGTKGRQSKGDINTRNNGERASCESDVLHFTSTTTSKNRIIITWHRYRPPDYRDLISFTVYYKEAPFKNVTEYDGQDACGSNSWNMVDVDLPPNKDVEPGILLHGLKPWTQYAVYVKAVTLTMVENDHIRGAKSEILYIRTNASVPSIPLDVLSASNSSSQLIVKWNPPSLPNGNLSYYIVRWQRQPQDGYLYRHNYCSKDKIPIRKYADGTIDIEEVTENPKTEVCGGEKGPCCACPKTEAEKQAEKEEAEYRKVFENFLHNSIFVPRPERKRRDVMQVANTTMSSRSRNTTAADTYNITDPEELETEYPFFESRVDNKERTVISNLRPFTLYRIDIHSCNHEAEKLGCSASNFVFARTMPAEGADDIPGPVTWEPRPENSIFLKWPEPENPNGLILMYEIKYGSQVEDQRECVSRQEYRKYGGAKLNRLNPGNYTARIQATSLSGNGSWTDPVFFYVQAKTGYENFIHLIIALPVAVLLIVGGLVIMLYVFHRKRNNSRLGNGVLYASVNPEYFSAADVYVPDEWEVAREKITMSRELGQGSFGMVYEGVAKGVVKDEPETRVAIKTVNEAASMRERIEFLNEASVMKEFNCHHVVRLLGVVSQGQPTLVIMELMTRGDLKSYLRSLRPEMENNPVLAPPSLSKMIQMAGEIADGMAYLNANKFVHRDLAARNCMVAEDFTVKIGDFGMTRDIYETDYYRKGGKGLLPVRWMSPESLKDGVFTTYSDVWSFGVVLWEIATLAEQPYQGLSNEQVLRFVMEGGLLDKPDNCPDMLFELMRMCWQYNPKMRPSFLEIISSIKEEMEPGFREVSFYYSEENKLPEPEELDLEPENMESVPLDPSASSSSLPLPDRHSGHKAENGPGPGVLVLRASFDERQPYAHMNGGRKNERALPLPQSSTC

IGF1 receptor = target: T2, IGF1 receptor (Mus musculus, UniProt Q60751); assay: Western blot of IGF2 signaling at the IGF1 receptor in NIH 3T3 cells with varying NVP-AEW541; assay type: cell-based; details: varying concentrations of NVP-AEW541, with or without IGF2
T2 construct: endogenous in cells; host or cells: NIH 3T3 cells
Experimental: NIH 3T3 cells were passaged every 3 days and maintained with low glucose DMEM plus 10% CBS in 5% CO2. The day prior to transfection cells were trypinsized and seeded into PLL-coated glass bottom Mattek dishes. Cells typically reached about 70% confluence the next day, when they were transfected with eGFP-Akt-PH plasmid with Fugene lipid following the manufacturer's instructions. 8 hours after transfection, cells were starved in 0.2% CBS in low glucose DMEM (with no antibiotics) for at least 12 hours. Western blots were performed with the antibodies shown, and varying concentrations of NVP-AEW541, with or without IGF2.

intestinal crypts = assay: Proliferation-related gene expression in laser capture microdissected intestinal crypts of mice treated with NVP-AEW541 for 3 weeks (real-time PCR); assay type: in vivo; details: mice treated with NVP-AEW541 50 mg/kg oral gavage for 3 weeks; LOI(−) normalized to 1.0
Experimental: Qunatitative real-time PCR was performed on laser capture microdissected intestinal crypts from 12 LOI(+) and 9 LOI(−) mice. Expression was normalized to β-actin, and the expression level in LOI(+) samples (gray) relative to LOI(−) samples (black) is shown. The bars indicate standard error. […] Analysis was by quantitative real-time PCR of laser capture microdissected crypts from four LOI(+) mice and four LOI(−) mice treated with NVP-AEW541 for 3 weeks. LOI(+) (gray bars), LOI(−) mice (black bars normalized to 1.0).
For validation, LCM was performed on an additional 12 LOI(+) and 9 LOI(−) mice, isolating approximately 800 crypts yielding more than 300 ng of total RNA from each. RNA samples were reverse-transcribed using SUPERSCRIPT II (Invitrogen), and quantified using SYBR Green PCR Core Reagents and an ABI Prism 7700 Sequence Detection System (Applied Biosystems), and normalized to β-actin.
Four LOI(+) and four LOI(−) mice were also treated with NVP-AEW541 to inhibit IGF2 signaling, at a dose of 50 mg/kg by oral gavage daily for 3 weeks (twice daily except daily on weekends). NVP-AEW541 is an ATP-competitive inhibitor of IGF-IR which blocks signaling at the IGF1 receptor, which mediates IGF2 signaling (Garcia-Echeverria et al., Cancer Cell (2004) 5:231-239). […] Thus, LOI-induced changes in proliferation-related gene expression were mediated, at least in part, through IGF2 signaling itself.

Akt/PKB = assay: Microfluidic chamber single cell immunocytochemistry of Akt/PKB activation (phospho-Akt Ser 473) in LOI(+) and LOI(−) MEF cells; assay type: cell-based, mouse; details: for inhibition of IGF2-triggered Akt activation: 60 min coincubation with 400 ng/ml IGF2 and 3 μM NVP-AEW541
Experimental: (A) Akt/PKB activation was assayed by single cell immunocytochemistry with an antibody to phosphorylated Akt (Ser 473), in a monolithic 2-layer PDMS chip sealed with a glass coverslip, with defined media delivery controlled by a multiplexed system of valves. Live LOI(+) and LOI(−) MEF cells were stimulated within the microfluidic chips with varying doses of IGF2, with measurements at multiple time points at each IGF2 concentration. […] For each cell type, IGF2 concentration, and time point, at least 200 individual cellular measurements were obtained by digital imaging and analysis. (B) Inhibition of Akt activation by NVP-AEW541. The cells were assayed as in (A) at 60 min after coincubation with 400 ng/ml IGF2 and 3 μM NVP-AEW541 and compared with the unstimulated control. Each bar is based on measurements of >400 cells. Asterisk indicates statistical difference vs LOI(+) control (t test, P<0.001) (C) Single cell analysis of ERK activation by IGF2 in LOI(+) and LOI(−) MEF cells. Erk activation was assayed by single immunocytochemistry within microfluidic chips using an antibody to phosphorylated Erk2 from Upstate (Charlottesville, Va.). LOI(+) cells (gray) and LOI(−) cells (black) were exposed to 400 ng/ml IGF2 for indicated times. […] Error bars represent SD. Standard error bars are completely subsumed by the symbols on this scale. (D) Gene expression levels in mouse embryonic fibroblasts. Quantitative real-time PCR was performed on LOI(+) and LOI(−) MEF cells, with expression normalized to transferring receptor expression. The expression level in LOI(+) samples (black) relative to LOI(−) samples (gray) is shown. The bars indicate standard error.
The immunostaining automation device consists of a monolithic 2-layer PDMS chip sealed with a glass coverslip, fabricated using techniques described previously (Unger et al., Science 288 (2000) 288:113-116). Multiplexing valves were actuated by pressure lines connected to off-device solenoid valves. The chip architecture, performance and validation are all described in a separate manuscript submitted for publication. The glass substrate of the cell culture chamber was coated by introducing 0.1% gelatin (Sigma) into the device for at least 30 minutes, then cells were introduced and allowed to attach for 3 hours. IGF2 (StemCell Technologies) dissolved in cell media was introduced to each chamber at different times so that the end of all stimulation periods coincided. To end the experiment, ice-cold PBS (Invitrogen) was introduced into all chambers followed immediately by 4% paraformaldehyde (Electron Microscopy Systems) for 20 minutes. Cells were permeabilized with 0.1% Triton X-100 (Sigma) for 5 min and blocked with 10% goat serum (Sigma), with PBS washes in between. […] Using custom MATLAB (Mathworks) programs, the images were […], stitched together, and quantified. […] For each cell type and time point, 200-300 cells were analyzed in this manner to ensure statistical significance.
Since both the endogenous IGF2 and IGF2 used in the MEF experiments are susceptible to IGF2 binding protein (IBP)-based inactivation, the dose of an IBP-resistant IGF2 variant was determined producing similar levels of Akt activation. […]

IGF1R [3] = target: T1, IGF1R; details: previously estimated; read-out: kD of IGF1R for IGF2; cited from earlier work
Target sequence in this assay (P08069 31-736 limits assumed, species assumed): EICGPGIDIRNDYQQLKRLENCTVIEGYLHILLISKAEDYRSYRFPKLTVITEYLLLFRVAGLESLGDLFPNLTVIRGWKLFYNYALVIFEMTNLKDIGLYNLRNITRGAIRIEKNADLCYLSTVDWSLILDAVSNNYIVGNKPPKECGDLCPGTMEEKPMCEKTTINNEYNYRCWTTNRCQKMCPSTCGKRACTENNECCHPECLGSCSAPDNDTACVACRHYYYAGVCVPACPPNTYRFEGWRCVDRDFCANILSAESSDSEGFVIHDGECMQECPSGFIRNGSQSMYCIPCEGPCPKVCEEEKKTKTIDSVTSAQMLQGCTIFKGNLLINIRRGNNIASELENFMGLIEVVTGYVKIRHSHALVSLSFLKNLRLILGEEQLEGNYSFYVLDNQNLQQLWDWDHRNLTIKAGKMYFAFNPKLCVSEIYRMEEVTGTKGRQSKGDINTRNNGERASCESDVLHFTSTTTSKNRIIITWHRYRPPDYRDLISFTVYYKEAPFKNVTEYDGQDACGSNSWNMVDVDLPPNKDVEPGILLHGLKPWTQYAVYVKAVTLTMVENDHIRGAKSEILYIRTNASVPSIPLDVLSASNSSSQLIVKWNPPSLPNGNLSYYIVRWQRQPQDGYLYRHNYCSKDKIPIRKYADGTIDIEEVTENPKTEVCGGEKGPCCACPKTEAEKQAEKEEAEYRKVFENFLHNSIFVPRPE
Target sequence in this assay (P08069 741-1367 partner limits assumed, species assumed): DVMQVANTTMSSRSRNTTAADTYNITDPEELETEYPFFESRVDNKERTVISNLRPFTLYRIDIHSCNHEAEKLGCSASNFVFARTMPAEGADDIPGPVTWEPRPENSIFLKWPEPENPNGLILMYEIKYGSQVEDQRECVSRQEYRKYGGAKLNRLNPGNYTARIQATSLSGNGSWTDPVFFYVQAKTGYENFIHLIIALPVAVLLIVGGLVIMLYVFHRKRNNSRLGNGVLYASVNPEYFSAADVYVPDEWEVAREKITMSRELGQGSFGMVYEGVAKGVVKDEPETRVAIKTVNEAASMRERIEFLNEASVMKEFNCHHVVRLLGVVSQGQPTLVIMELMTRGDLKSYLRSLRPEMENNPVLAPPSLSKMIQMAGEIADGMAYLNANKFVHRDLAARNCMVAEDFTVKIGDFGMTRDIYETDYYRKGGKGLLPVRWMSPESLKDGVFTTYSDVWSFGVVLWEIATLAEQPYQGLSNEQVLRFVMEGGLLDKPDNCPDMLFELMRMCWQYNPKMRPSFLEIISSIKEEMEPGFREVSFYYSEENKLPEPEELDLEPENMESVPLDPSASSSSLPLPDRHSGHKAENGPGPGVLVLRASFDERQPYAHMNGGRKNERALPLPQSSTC

T2 sequence (Q60751 31-1373): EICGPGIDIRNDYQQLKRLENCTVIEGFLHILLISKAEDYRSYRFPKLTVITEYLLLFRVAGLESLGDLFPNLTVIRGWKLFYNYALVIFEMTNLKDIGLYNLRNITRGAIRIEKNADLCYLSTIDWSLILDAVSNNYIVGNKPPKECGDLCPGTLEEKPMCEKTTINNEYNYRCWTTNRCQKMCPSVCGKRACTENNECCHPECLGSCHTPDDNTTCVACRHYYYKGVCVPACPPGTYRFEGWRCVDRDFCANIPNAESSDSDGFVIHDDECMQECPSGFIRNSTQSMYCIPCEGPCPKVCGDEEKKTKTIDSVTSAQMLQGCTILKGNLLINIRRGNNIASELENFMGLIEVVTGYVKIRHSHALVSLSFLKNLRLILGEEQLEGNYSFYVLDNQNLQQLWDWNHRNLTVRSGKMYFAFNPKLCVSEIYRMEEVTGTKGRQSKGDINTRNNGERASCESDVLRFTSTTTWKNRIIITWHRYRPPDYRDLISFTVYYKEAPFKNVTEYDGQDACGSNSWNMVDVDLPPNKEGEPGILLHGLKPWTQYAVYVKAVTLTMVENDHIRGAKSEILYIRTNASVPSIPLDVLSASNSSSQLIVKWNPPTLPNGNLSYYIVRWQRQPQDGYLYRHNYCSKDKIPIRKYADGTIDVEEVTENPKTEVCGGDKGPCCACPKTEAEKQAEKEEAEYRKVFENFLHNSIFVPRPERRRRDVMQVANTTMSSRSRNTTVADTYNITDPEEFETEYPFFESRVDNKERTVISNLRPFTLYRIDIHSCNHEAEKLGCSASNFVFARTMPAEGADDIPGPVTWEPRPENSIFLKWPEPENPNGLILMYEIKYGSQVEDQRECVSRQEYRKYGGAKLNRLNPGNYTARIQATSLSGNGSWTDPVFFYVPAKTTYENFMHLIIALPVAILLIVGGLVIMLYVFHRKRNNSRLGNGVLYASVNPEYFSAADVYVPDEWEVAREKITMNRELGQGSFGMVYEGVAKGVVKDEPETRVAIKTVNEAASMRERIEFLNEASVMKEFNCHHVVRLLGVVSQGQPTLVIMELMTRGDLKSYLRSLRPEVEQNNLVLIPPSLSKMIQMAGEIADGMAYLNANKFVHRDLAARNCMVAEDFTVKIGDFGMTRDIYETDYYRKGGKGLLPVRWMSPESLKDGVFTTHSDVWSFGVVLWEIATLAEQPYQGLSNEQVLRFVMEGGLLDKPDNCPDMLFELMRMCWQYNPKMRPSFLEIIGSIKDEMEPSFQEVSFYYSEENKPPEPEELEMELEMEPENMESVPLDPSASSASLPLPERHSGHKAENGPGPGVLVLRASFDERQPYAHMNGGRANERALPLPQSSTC

CN=[N+](C)[O-] [AOM, azoxymethane]
ACF per colon ([1]; LOI(+) mice): 19.8±2.2 ACF per colon | ACF per colon ([1]; LOI(−) mice): 12.4±0.9 ACF per colon

Nc1ncnc2c1c(-c1cccc(OCc3ccccc3)c1)cn2C1CC(CN2CCC2)C1 (stereo not shown) [NVP-AEW541]
effect on IGF2-induced increased expression of Cdc6 (mouse ES cells; 800 ng/ml Igf2, 3 μM NVP-AEW541, all time points): completely abrogated | selectivity for IGF1R over the insulin receptor (IGF1R [2]): specifically inhibits IGF1R over the related insulin receptor | inhibition of IGF2 signaling at the IGF1 receptor (IGF1 receptor): blocks IGF2 at IGF1R | AOM-induced ACF formation ([1]; LOI(+) mice): 7.8±1.2 ACF per colon | decrease in ACFs normalized to colon surface area ([1]; LOI(+) mice): 56% | AOM-induced ACF formation ([1]; LOI(−) mice): 11.3±1.6 ACF per colon | decrease in ACFs normalized to colon surface area ([1]; LOI(−) mice): no decrease | Ccne1 expression in LOI(+) crypts relative to LOI(−) crypts (intestinal crypts): 0.57 fold | Cdc6 expression in LOI(+) crypts relative to LOI(−) crypts (intestinal crypts): 0.49 fold | Chaf1a expression in LOI(+) crypts relative to LOI(−) crypts (intestinal crypts): 0.42 fold | Lig1 expression in LOI(+) crypts relative to LOI(−) crypts (intestinal crypts): 0.42 fold | Mcm3 expression in LOI(+) crypts relative to LOI(−) crypts (intestinal crypts): 0.65 fold | Mcm5 expression in LOI(+) crypts relative to LOI(−) crypts (intestinal crypts): 0.48 fold | inhibition of IGF2-triggered Akt activation (Akt/PKB; LOI(+) MEF cells): significantly below the baseline | inhibition of IGF2-triggered Akt activation (Akt/PKB; LOI(−) MEF cells): inhibited to the baseline levels

insulin-like growth factor 2 [IGF2]
Kd (IGF1R [3]): 1 to 10 nM | increase in Cdc6 gene expression (mouse ES cells; 3 hours): 50% | increase in Cdc6 gene expression (mouse ES cells; 6 hours): 56% | increase in Cdc6 gene expression (mouse ES cells; 10 hours): 40% | increase in Cdc6 gene expression (mouse ES cells; 24 hours): 25% | Akt signal at higher IGF2 doses (Akt/PKB; LOI(+) MEF cells, IGF2 doses above 400 ng/ml): progressively more transient and less pronounced | duration of sustained Akt activation (Akt/PKB; LOI(+) MEF cells, lowest IGF2 concentration 400 ng/ml): > 120 min | return of Akt activation to the baseline (Akt/PKB; LOI(−) MEF cells, IGF2 400, 800 and 1600 ng/ml): ≤ 90 min
